Laboratory results reported in PMC5218480 (PLoS ONE, 2017).

Test system: MV-4-11 cells
Assay: Gene expression microarray analysis (Affymetrix PrimeView) and GSEA
Assay type: cell-based, human
Parameters: RFU PODN (11730768_x_at) / Fold change /veh PODN (11730768_x_at) / RFU LINC00158 (11744669_a_at) / Fold change /veh LINC00158 (11744669_a_at) / RFU DUSP10 (11751237_a_at) / Fold change /veh DUSP10 (11751237_a_at) / RFU ID3 (11757404_x_at) / Fold change /veh ID3 (11757404_x_at) / RFU PLEKHG5 (11737974_s_at) / Fold change /veh PLEKHG5 (11737974_s_at) / RFU LRRC4B (11730491_at) / Fold change /veh LRRC4B (11730491_at) / RFU GIMAP4 (11747438_a_at) / Fold change /veh GIMAP4 (11747438_a_at) / RFU KRT8 (11758183_x_at) / Fold change /veh KRT8 (11758183_x_at) / RFU CNN1 (11734310_a_at) / Fold change /veh CNN1 (11734310_a_at) / RFU VPS37D (11726825_at) / Fold change /veh VPS37D (11726825_at) / RFU C10orf10 (11716522_x_at) / Fold change /veh C10orf10 (11716522_x_at) / RFU KIR2DL2 /// KIR2DL4 /// KIR2DL5A /// KIR2DL5B /// KIR2DS1 /// KIR2DS2 /// KIR2DS3 /// KIR2DS4 /// KIR3DL3 /// KIR3DL3 /// KIR3DS1 (11738374_at) / Fold change /veh KIR2DL2 /// KIR2DL4 /// KIR2DL5A /// KIR2DL5B /// KIR2DS1 /// KIR2DS2 /// KIR2DS3 /// KIR2DS4 /// KIR3DL3 /// KIR3DL3 /// KIR3DS1 (11738374_at) / RFU C1QL1 (11718748_at) / Fold change /veh C1QL1 (11718748_at) / RFU TMPRSS4 (11747572_a_at) / Fold change /veh TMPRSS4 (11747572_a_at) / RFU HAMP (11756126_x_at) / Fold change /veh HAMP (11756126_x_at) / RFU RNFT2 (11725882_a_at) / Fold change /veh RNFT2 (11725882_a_at) / RFU NR4A2 (11747474_a_at) / Fold change /veh NR4A2 (11747474_a_at) / RFU ABCC12 (11746883_a_at) / Fold change /veh ABCC12 (11746883_a_at) / RFU TMEM136 (11760407_x_at) / Fold change /veh TMEM136 (11760407_x_at) / RFU CLDN22 /// WWC2 (11732394_at) / Fold change /veh CLDN22 /// WWC2 (11732394_at) / RFU HLA-DPB1 (11760878_x_at) / Fold change /veh HLA-DPB1 (11760878_x_at) / RFU SPINT1 (11716480_a_at) / Fold change /veh SPINT1 (11716480_a_at) / RFU GAP43 (11754022_s_at) / Fold change /veh GAP43 (11754022_s_at) / RFU A4GNT (11735810_at) / Fold change /veh A4GNT (11735810_at) / RFU PRB3 (11715151_x_at) / Fold change /veh PRB3 (11715151_x_at) / RFU TUBB4B (11761932_at) / Fold change /veh TUBB4B (11761932_at) / RFU CAPN14 (11732068_a_at) / Fold change /veh CAPN14 (11732068_a_at) / RFU TMCC2 (11721928_a_at) / Fold change /veh TMCC2 (11721928_a_at) / RFU IRGQ (11745062_a_at) / Fold change /veh IRGQ (11745062_a_at) / RFU FAM174B (11720279_a_at) / Fold change /veh FAM174B (11720279_a_at) / RFU TMPRSS4 (11748680_a_at) / Fold change /veh TMPRSS4 (11748680_a_at) / RFU FAM212B (11763350_a_at) / Fold change /veh FAM212B (11763350_a_at) / RFU PLEKHG5 (11743358_a_at) / Fold change /veh PLEKHG5 (11743358_a_at) / RFU ZSCAN30 (11745921_a_at) / Fold change /veh ZSCAN30 (11745921_a_at) / RFU CMKLR1 (11741424_a_at) / Fold change /veh CMKLR1 (11741424_a_at) / RFU LOC101060620 /// MAPK8IP1 (11723275_at) / Fold change /veh LOC101060620 /// MAPK8IP1 (11723275_at) / RFU SPTSSB (11747773_x_at) / Fold change /veh SPTSSB (11747773_x_at) / RFU PRSS12 (11739890_at) / Fold change /veh PRSS12 (11739890_at) / RFU BIN1 (11741810_x_at) / Fold change /veh BIN1 (11741810_x_at) / RFU WNT11 (11732464_a_at) / Fold change /veh WNT11 (11732464_a_at) / RFU C10orf10 (11716521_a_at) / Fold change /veh C10orf10 (11716521_a_at) / RFU C5orf56 (11738089_at) / Fold change /veh C5orf56 (11738089_at) / RFU CYB561 (11721691_x_at) / Fold change /veh CYB561 (11721691_x_at) / RFU ANKRD19P (11752326_a_at) / Fold change /veh ANKRD19P (11752326_a_at) / RFU OR2T12 /// OR2T33 /// OR2T8 (11738714_s_at) / Fold change /veh OR2T12 /// OR2T33 /// OR2T8 (11738714_s_at) / RFU VCAN (11748164_a_at) / Fold change /veh VCAN (11748164_a_at) / RFU JSRP1 (11732532_at) / Fold change /veh JSRP1 (11732532_at) / RFU KRTAP10-11 (11738290_x_at) / Fold change /veh KRTAP10-11 (11738290_x_at) / RFU MYO3A (11730013_a_at) / Fold change /veh MYO3A (11730013_a_at) / RFU EBF3 (11725865_a_at) / Fold change /veh EBF3 (11725865_a_at) / RFU CAMK2N1 (11719241_x_at) / Fold change /veh CAMK2N1 (11719241_x_at) / RFU C5orf56 (11738088_a_at) / Fold change /veh C5orf56 (11738088_a_at) / RFU OLFML3 (11715873_a_at) / Fold change /veh OLFML3 (11715873_a_at) / RFU LOC100653217 /// NTM (11731650_a_at) / Fold change /veh LOC100653217 /// NTM (11731650_a_at) / RFU MAPK11 (11762145_a_at) / Fold change /veh MAPK11 (11762145_a_at) / RFU FIZ1 (11724087_x_at) / Fold change /veh FIZ1 (11724087_x_at) / RFU OASL (11726364_x_at) / Fold change /veh OASL (11726364_x_at) / RFU SOX15 (11748057_x_at) / Fold change /veh SOX15 (11748057_x_at) / RFU CD79A (11719716_a_at) / Fold change /veh CD79A (11719716_a_at) / RFU HIST1H1D (11736915_at) / Fold change /veh HIST1H1D (11736915_at) / RFU CASKIN2 (11723855_a_at) / Fold change /veh CASKIN2 (11723855_a_at) / RFU LOC730098 (11760151_x_at) / Fold change /veh LOC730098 (11760151_x_at) / RFU OR4N2 (11742367_at) / Fold change /veh OR4N2 (11742367_at) / RFU PRRT2 (11749266_a_at) / Fold change /veh PRRT2 (11749266_a_at) / RFU SNX32 (11753110_a_at) / Fold change /veh SNX32 (11753110_a_at) / RFU CDHR5 (11726645_a_at) / Fold change /veh CDHR5 (11726645_a_at) / RFU RCAN1 (11760418_a_at) / Fold change /veh RCAN1 (11760418_a_at) / RFU FAM167A (11723789_a_at) / Fold change /veh FAM167A (11723789_a_at) / RFU FAM26E (11764081_at) / Fold change /veh FAM26E (11764081_at) / RFU ISYNA1 (11749810_s_at) / Fold change /veh ISYNA1 (11749810_s_at) / RFU ACY1 (11761880_at) / Fold change /veh ACY1 (11761880_at) / RFU 11764098_at / Fold change /veh 11764098_at / RFU SAMD14 (11745864_x_at) / Fold change /veh SAMD14 (11745864_x_at) / RFU NPB (11741838_a_at) / Fold change /veh NPB (11741838_a_at) / RFU TMPRSS6 (11731388_a_at) / Fold change /veh TMPRSS6 (11731388_a_at) / RFU KRTAP10-2 (11738614_at) / Fold change /veh KRTAP10-2 (11738614_at) / RFU ARHGAP8 /// PRR5-ARHGAP8 (11727945_x_at) / Fold change /veh ARHGAP8 /// PRR5-ARHGAP8 (11727945_x_at) / RFU KRTAP5-7 /// NADSYN1 (11734609_at) / Fold change /veh KRTAP5-7 /// NADSYN1 (11734609_at) / RFU RASL12 (11751679_a_at) / Fold change /veh RASL12 (11751679_a_at) / RFU CDKN2B (11736163_a_at) / Fold change /veh CDKN2B (11736163_a_at) / RFU PRF1 (11729649_at) / Fold change /veh PRF1 (11729649_at) / RFU, ZNF638 /// ZNF638-IT1 / Fold change vs veh, ZNF638 /// ZNF638-IT1 / RFU, PANK3 / Fold change vs veh, PANK3 / RFU, SH3YL1 / Fold change vs veh, SH3YL1 / RFU, ZEB2 / Fold change vs veh, ZEB2 / RFU, NRIP1 / Fold change vs veh, NRIP1 / RFU, PTTG1IP / Fold change vs veh, PTTG1IP / RFU, CAPN2 / Fold change vs veh, CAPN2 / RFU, MED14 / Fold change vs veh, MED14 / RFU, SNORA58 / Fold change vs veh, SNORA58 / RFU, C1orf63 / Fold change vs veh, C1orf63 / RFU, LRRFIP1 / Fold change vs veh, LRRFIP1 / RFU, NDUFAF7 / Fold change vs veh, NDUFAF7 / RFU, SLC12A2 / Fold change vs veh, SLC12A2 / RFU, IBTK / Fold change vs veh, IBTK / RFU, ESF1 / Fold change vs veh, ESF1 / Fold change vs veh, TMEM50B / RFU, TAOK1 / Fold change vs veh, TAOK1 / RFU, ACBD3 / Fold change vs veh, ACBD3 / RFU, TMA16 / Fold change vs veh, TMA16 / RFU, RWDD3 / Fold change vs veh, RWDD3 / RFU, BCAT1 / Fold change vs veh, BCAT1 / RFU, EDEM3 / Fold change vs veh, EDEM3 / RFU, TMEM33 / Fold change vs veh, TMEM33 / RFU, WDR75 / Fold change vs veh, WDR75 / RFU, AHCTF1 / Fold change vs veh, AHCTF1 / RFU, TFRC / Fold change vs veh, TFRC / RFU, ZDHHC17 / Fold change vs veh, ZDHHC17 / RFU, NOM1 / Fold change vs veh, NOM1 / RFU, ARL8B / Fold change vs veh, ARL8B / RFU, ZBTB11 / Fold change vs veh, ZBTB11 / RFU, TAMM41 / Fold change vs veh, TAMM41 / RFU, KIAA1704 /// LOC100996395 / Fold change vs veh, KIAA1704 /// LOC100996395 / RFU, ING1 / Fold change vs veh, ING1 / RFU, TRMT61B / Fold change vs veh, TRMT61B / RFU, FUBP3 / Fold change vs veh, FUBP3 / RFU, TP53 / Fold change vs veh, TP53 / RFU, TNKS2 / Fold change vs veh, TNKS2 / RFU, ZFP14 / Fold change vs veh, ZFP14 / RFU, ACTR2 / Fold change vs veh, ACTR2 / RFU, PPP3R1 / Fold change vs veh, PPP3R1 / RFU, PIK3R1 / Fold change vs veh, PIK3R1 / RFU, HNRNPA1 / Fold change vs veh, HNRNPA1 / RFU, RNF170 / Fold change vs veh, RNF170 / RFU, ZNF28 / Fold change vs veh, ZNF28 / RFU, RNGTT / Fold change vs veh, RNGTT / RFU, OGT / Fold change vs veh, OGT / RFU, BRD1 / Fold change vs veh, BRD1 / RFU, MARS / Fold change vs veh, MARS / RFU, ZNF655 / Fold change vs veh, ZNF655 / RFU, FAHD1 / Fold change vs veh, FAHD1 / RFU, BDP1 / Fold change vs veh, BDP1 / RFU, LRRCC1 / Fold change vs veh, LRRCC1 / RFU, ARID1A / Fold change vs veh, ARID1A / RFU, ZNF146 / Fold change vs veh, ZNF146 / RFU, ZNF330 / Fold change vs veh, ZNF330 / RFU, GPN3 / Fold change vs veh, GPN3 / RFU, C9orf123 / Fold change vs veh, C9orf123 / RFU, N4BP2L2 / Fold change vs veh, N4BP2L2 / RFU, ARFIP1 / Fold change vs veh, ARFIP1 / RFU, FAM179B / Fold change vs veh, FAM179B / RFU, BCL10 / Fold change vs veh, BCL10 / RFU, UHRF1BP1L / Fold change vs veh, UHRF1BP1L / RFU, BET1 / Fold change vs veh, BET1 / RFU, CNOT2 / Fold change vs veh, CNOT2 / RFU, ZNF268 / Fold change vs veh, ZNF268 / Fold change vs veh, ZNF507 / RFU, DGCR2 / Fold change vs veh, DGCR2 / RFU, WDSUB1 / Fold change vs veh, WDSUB1 / Fold change vs veh, HSP90B1 /// MIR3652 / RFU, ADSS / Fold change vs veh, ADSS / RFU, GK / Fold change vs veh, GK / RFU, ZNF148 / Fold change vs veh, ZNF148 / RFU, TAF9 / Fold change vs veh, TAF9 / RFU, SLC1A5 / Fold change vs veh, SLC1A5 / RFU, SLMO2 / Fold change vs veh, SLMO2 / RFU, ABCC4 / Fold change vs veh, ABCC4 / RFU, LOC101060439 /// RAP1B / Fold change vs veh, LOC101060439 /// RAP1B / RFU, RFX7 / Fold change vs veh, RFX7 / RFU, GTPBP10 / Fold change vs veh, GTPBP10 / RFU, CNEP1R1 / Fold change vs veh, CNEP1R1 / RFU, BIVM-ERCC5 /// ERCC5 / Fold change vs veh, BIVM-ERCC5 /// ERCC5 / RFU, ILF3 / Fold change vs veh, ILF3 / RFU 11762660_at / Fold change /veh 11762660_at / RFU VCAN (11757783_s_at) / Fold change /veh VCAN (11757783_s_at) / RFU DDX43 (11728927_at) / Fold change /veh DDX43 (11728927_at) / RFU KRT8 (11758188_x_at) / Fold change /veh KRT8 (11758188_x_at) / RFU NKD1 (11759106_at) / Fold change /veh NKD1 (11759106_at) / RFU SRD5A1 (11742802_a_at) / Fold change /veh SRD5A1 (11742802_a_at) / RFU TPSAB1 /// TPSB2 (11721975_s_at) / Fold change /veh TPSAB1 /// TPSB2 (11721975_s_at) / RFU GSTM3 (11746129_a_at) / Fold change /veh GSTM3 (11746129_a_at) / RFU IL23R (11737362_x_at) / Fold change /veh IL23R (11737362_x_at) / RFU TMEM51 (11727254_a_at) / Fold change /veh TMEM51 (11727254_a_at) / RFU PIWIL2 (11732686_x_at) / Fold change /veh PIWIL2 (11732686_x_at) / RFU ORM1 (11744905_x_at) / Fold change /veh ORM1 (11744905_x_at) / RFU CCDC152 (11743942_at) / Fold change /veh CCDC152 (11743942_at) / RFU ECM1 (11717891_a_at) / Fold change /veh ECM1 (11717891_a_at) / RFU IL23R (11748794_a_at) / Fold change /veh IL23R (11748794_a_at) / RFU TNFAIP8L3 (11732012_x_at) / Fold change /veh TNFAIP8L3 (11732012_x_at) / RFU MBOAT4 (11741988_at) / Fold change /veh MBOAT4 (11741988_at) / RFU 11764193_at / Fold change /veh 11764193_at / RFU TMEM53 (11763286_at) / Fold change /veh TMEM53 (11763286_at) / RFU MAGEB2 (11727129_at) / Fold change /veh MAGEB2 (11727129_at) / RFU TMEM200A (11744735_a_at) / Fold change /veh TMEM200A (11744735_a_at) / RFU CCDC152 (11751479_a_at) / Fold change /veh CCDC152 (11751479_a_at) / RFU FAM211A (11726209_a_at) / Fold change /veh FAM211A (11726209_a_at) / RFU RGS16 (11746705_a_at) / Fold change /veh RGS16 (11746705_a_at) / RFU VCAN (11755009_s_at) / Fold change /veh VCAN (11755009_s_at) / RFU RHOB (11743442_s_at) / Fold change /veh RHOB (11743442_s_at) / RFU RGS16 (11720943_a_at) / Fold change /veh RGS16 (11720943_a_at) / RFU RGS16 (11720944_at) / Fold change /veh RGS16 (11720944_at) / RFU, VPS4B / Fold change vs veh, VPS4B / RFU, CREB1 / Fold change vs veh, CREB1 / RFU, DNAJC13 / Fold change vs veh, DNAJC13 / RFU, GNAQ / Fold change vs veh, GNAQ / RFU, CDK5R1 / Fold change vs veh, CDK5R1 / RFU, ZRANB3 / Fold change vs veh, ZRANB3 / RFU, CUL4A / Fold change vs veh, CUL4A / RFU, CCNY / Fold change vs veh, CCNY / RFU, UFL1 / Fold change vs veh, UFL1 / RFU, COG3 / Fold change vs veh, COG3 / RFU, DIAPH2 / Fold change vs veh, DIAPH2 / RFU, SKA2 / Fold change vs veh, SKA2 / RFU, AFF3 / Fold change vs veh, AFF3 / RFU, LMF1 / Fold change vs veh, LMF1 / RFU, IPO11 / Fold change vs veh, IPO11 / RFU, DFFB / Fold change vs veh, DFFB / RFU, FOXP1 / Fold change vs veh, FOXP1 / RFU, CARD8 / Fold change vs veh, CARD8 / RFU, STRN3 / Fold change vs veh, STRN3 / RFU, ADK / Fold change vs veh, ADK / RFU, RASSF2 / Fold change vs veh, RASSF2 / RFU, WIPF1 / Fold change vs veh, WIPF1 / RFU, LARP1B / Fold change vs veh, LARP1B / RFU, RASA1 / Fold change vs veh, RASA1 / RFU, RB1 / Fold change vs veh, RB1 / RFU, PPFIA1 / Fold change vs veh, PPFIA1 / RFU, MAT2A / Fold change vs veh, MAT2A / RFU, CCT5 / Fold change vs veh, CCT5 / RFU, WDR92 / Fold change vs veh, WDR92 / RFU, CUX1 / Fold change vs veh, CUX1 / RFU, TTC7A / Fold change vs veh, TTC7A / RFU, TMEM135 / Fold change vs veh, TMEM135 / RFU, DEPTOR / Fold change vs veh, DEPTOR / RFU, CPM / Fold change vs veh, CPM / RFU, DNAJB6 / Fold change vs veh, DNAJB6 / RFU, CACNA2D3 / Fold change vs veh, CACNA2D3 / RFU, DTX4 / Fold change vs veh, DTX4 / RFU, TFCP2 / Fold change vs veh, TFCP2 / RFU, GMCL1 /// GMCL1P1 / Fold change vs veh, GMCL1 /// GMCL1P1 / RFU, AEBP2 / Fold change vs veh, AEBP2 / RFU, SNHG1 /// SNORD22 /// SNORD25 /// SNORD26 /// SNORD27 /// SNORD28 /// SNORD29 /// SNORD31 / Fold change vs veh, SNHG1 /// SNORD22 /// SNORD25 /// SNORD26 /// SNORD27 /// SNORD28 /// SNORD29 /// SNORD31 / Fold change (Aza/veh), C12orf56 (ProbeSet 11735607_a_at) / Fold change (ACY-1035/veh), C12orf56 (ProbeSet 11735607_a_at) / Fold change (Aza/veh), FGFR1OP (ProbeSet 11751329_s_at) / Fold change (ACY-1035/veh), FGFR1OP (ProbeSet 11751329_s_at) / Fold change (Aza/veh), VPS36 (ProbeSet 11739960_a_at) / Fold change (ACY-1035/veh), VPS36 (ProbeSet 11739960_a_at) / RFU SYPL1 (11715823_x_at) / Fold change /veh SYPL1 (11715823_x_at) / RFU IGFBP7 (11715501_s_at) / Fold change /veh IGFBP7 (11715501_s_at) / RFU REEP3 (11722064_at) / Fold change /veh REEP3 (11722064_at) / RFU IGLL1 (11728026_x_at) / Fold change /veh IGLL1 (11728026_x_at): dose or concentration left out as unconfirmed
Settings: ProbeSet 11722463_a_at; LIST B

## Nc1ccc(-c2cccs2)cc1NC(=O)c1ccc2c(c1)cc(C1CC1)n2CCN1CCOCC1 [ACY-1035]
  RFU, TNKS2: 53.51 RFU
